# In patent publication US11046991B2, “Rapid preconcentration of viable bacteria using magnetic ionic liquid for PCR amplification and culture-based diagnostics” (priority 2017, dated 2021):
# Read-outs that look alike come from different tables or passages of the source.
# Legend:
# [1] = Magnetic susceptibility, SQUID magnetometer; format: physicochemical; conditions: for μeff, effective magnetic moment: from magnetic susceptibility data, SQUID
# Method: The μeff values for each exemplary MIL were determined using a Quantum Design MPMS SQUID magnetometer following procedures similar to those previously reported. (Y. Mudryk, P. Manfrinetti, V. Smetana, J. Liu, M. L. Fornasini, A. Provino, V. K. Pecharsky, G. J. Miller and K. A. Gschneidner, J. Alloys Compd, 2013, 557, 252-260).
# [2] = test system: E. coli K12 cells; format: cell-based
# Method: Since culture-based methods are contingent upon the isolation of viable bacteria, the detection of E. coli following MIL-based cell extraction is influenced by the cytotoxicity of MILs. To study the effect of MILs on the growth of E. coli, a 1 mL aliquot of LB media was inoculated with 8.0×10^2±0.5×10^2 CFUs mL^−1 and spiked with approximately 10 μL of a MIL. The mixture was agitated by vortex to simulate the recovery procedure after which a 100 μL aliquot of the suspension was plated on selective agar.
# [3] = Hydrophobicity comparison: 50 μL MIL in 12 mL water, vortexed and heated to 85° C.; format: physicochemical; conditions: 50 μL MIL in 12 mL deionized water, 85° C. for 10 minutes
# Method: […] […] Vortexing the MIL droplet caused dispersion of the MIL into fine microdroplets that were suspended within the aqueous solution, ultimately settling at the bottom of the vessel. […] Each MIL was vortexed and heated to 85° C. for 10 minutes.
# [4] = Thermal stability, MIL film in GC capillary with flame ionization detection; format: physicochemical; conditions: for onset of decomposition (thermal stability): 40° C. to 350° C. at 1° C./min
# Method: The thermal stability of all exemplary MILs was tested by monitoring the thermal volatilization/decomposition of the MIL when the MIL was used as a stationary phase in gas chromatography. To achieve this, an approximate 0.25-0.28 μm film of IL/MIL was immobilized on the inner wall of a fused silica capillary. The IL/MIL coated capillary was then heated slowly in a GC oven and an ultra-sensitive flame ionization detector (FID) was used to detect any volatilization/decomposition of the IL/MIL. These tests were run using a temperature program starting at 40° C. and increased at 1° C./min to 350° C. on an Agilent 6850 gas chromatograph with a flame ionization detector (Santa Clara, Calif., USA). The [P66614^+] [Cl^−] IL was also coated under the same conditions and was used as a reference.
# [5] = test system: E. coli; assay: PCR amplification of LB back-extraction solution after MIL-based extraction; conditions: for E. coli concentration at which bacterial pDNA was detected by PCR: cell recovery in LB media prior to PCR, 2 mL sample; for amplicon after extraction of cell filtrate (cell-free DNA): filtrate of 1.68×10^5 CFUs mL^−1 suspension through 0.22 μm filter
# Method: (§1) A general schematic for the MIL-based cell extraction procedure is depicted in FIG. 10. In a 4 mL screw cap glass vial, a controlled volume (e.g., 10 μL) of MIL was added to 2 mL of diluted cell suspension and dispersed into microdroplets by vortex agitation for 15-120 s. Following the dispersive extraction, a 0.9 T magnetic field was applied to collect the cell-enriched MIL extraction phase. After the aqueous phase was decanted, the MIL was subjected to a static wash with 2 mL of deionized water to ensure that residual cell suspension was removed. The extracted E. coli was recovered from the MIL solvent by vortexing the MIL in 1 mL of LB media from 30 to 300 s. Following back-extraction, aliquots of the cell-enriched LB media were cultured on selective agar as well as analyzed by PCR.
# Following the recovery of E. coli cells from the MIL extraction phase, an aliquot of the LB back-extraction solution was analyzed by PCR. […] The thermal protocol used for amplification of the MTAP gene was as follows: 5 min initial denaturation at 95° C. followed by 30 cycles of 30 s denaturation at 95° C., 45 s annealing at 54° C., and elongation for 45 s at 72° C.
# After thermal cycling, the PCR products were mixed with 10 μL of bromophenol blue tracking dye solution (30% glycerol v/v) and loaded on a 1% agarose gel stained with SYBR Safe DNA gel stain. The PCR amplicon was subjected to electrophoresis at approximately 4 V cm^−1 and subsequently visualized using a transilluminator.
# To improve detection limits, cells were recovered from the MIL phase using […] and a 1 μL aliquot of LB media was analyzed by PCR amplification. […] MILs as extraction media.
# MIL. […] 1999; 37:2479-82). It should be noted that PCR assays are unable to distinguish between live and dead cells and, therefore, are complementary to microbiological culture for the determination of viable cells in a sample.
# [6] = 1 second vial inversion (viscosity comparison); format: physicochemical; conditions: 1 second inversion of each MIL
# Source text: FIG. 2 compares the viscosities of [P66614^+]2[MnCl4^2−], [P66614^+][Ni(hfacac)3^−], and [P66614^+][Nd(hfacac)4^−] by performing a 1 second inversion of each MIL.
# [7] = test system: E. coli; assay: MIL-based extraction of viable E. coli, selective culture and colony enumeration; conditions: aqueous solutions of 1.68×10^5 CFUs mL^−1
# Method: For each cell extraction experiment, 2 mL of sterile LB media with 100 μg mL^−1 carbenicillin was inoculated with 0.5 μL of E. coli glycerol stock and incubated overnight at 37° C. and 225 rpm. The overnight culture was centrifuged at 2820 g for 8 min and the supernatant discarded. The cells were then vortexed for 15 s in 2 mL of deionized water and centrifuged once again at 2820 g for 8 min. Following a total of three washes, the cells were re-suspended in 1 mL of deionized water. The concentration of cells within the suspension was initially determined by measuring the optical density of the sample at 600 nm (OD600), where an OD600 equal to 1.000 represents 8×10^8 E. coli cells mL^−1. The bacterial suspension was diluted to an OD600 value of 0.021 (1.68×10^7 cells mL^−1), after which 10-fold serial dilutions were performed to yield the desired sample concentration. Since the sample concentrations were below the detection limit of the spectrophotometer, the final concentration of each sample (in CFUs mL^−1) was obtained using a plate counting method. Briefly, 15 μL of diluted cell suspension were mixed with 985 μL of LB media and vortexed for 3 min. A […] aliquot of the suspension was spread onto a selective LB agar plate with 100 μg mL^−1 carbenicillin and incubated overnight at 37° C. to obtain visible colonies.
# as §1
# To detect viable bacteria recovered from the MIL extraction solvent, a culture-based method selective for E. coli transformants was employed. Following MIL-based extraction, a 100 μL aliquot of the LB back-extraction solution was plated on LB agar containing 100 μg mL^−1 carbenicillin and incubated overnight at 37° C. Visible colonies were counted, tabulated, and compared to the colonies obtained for the sample prior to extraction. The enrichment factor (EF) from the MIL-based extraction was calculated by Equation 1, where CMIL is the concentration of CFUs within the MIL extraction phase and CS represents the concentration of CFUs in the bacterial suspension prior to extraction. EF=CMIL/CS Equation 1
# To determine if MILs can extract viable E. coli cells, aqueous solutions of 1.68×10^5 CFUs mL^−1 were extracted with each of the seven MILs using an approach that is similar to one depicted in FIG. 10. […] [Co(hfacac)3^−] MILs with the greatest number of colonies obtained from the Ni(II)-based MIL extractions.
# [8] = Pipette transfer at room temperature (preliminary viscosity testing); format: physicochemical; conditions: neat MIL, without heating
# Method: (§2) Pairing of intermediate 1a to an imidazolium-based cation was carried out for preliminary viscosity and hydrophobicity testing. A metathesis reaction was performed between 1-(6-hydroxyhexyl)-3-methylimidazolium chloride [MC6OHIM^+][Cl^−] and intermediate 1a to form [MC6OHIM^+] [Co(hfacac)3^−]. […] Since the broad applicability of hydrophobic MILs is very much dependent upon the ease with which they can be transferred using traditional liquid handling methods, the [P66614^+] cation was selected for preparation of the hfacac-based MILs.
# [9] = Water solubility observation of intermediates and preliminary MILs (hydrophobicity testing); format: physicochemical; conditions: color change in the aqueous solution two hours after addition of the MIL
# Method: The [P66614^+][Cl^−] IL is commercially available.
# as §2
# [10] = 25° C.; cited from earlier work
# [11] = LB media with 8.0×10^2 CFUs mL^−1, approximately 10 μL of MIL, compared to unexposed standard
Compound,"μeff, effective magnetic moment [1] [μB]","influence on the growth of E. coli [2, 11]",dissolution into the aqueous phase [3],E. coli concentration at which bacterial pDNA was detected by PCR [5],viscosity [10] [cP],other results
"CCCCCCCCCCCCCC[P+](CCCCCC)(CCCCCC)CCCCCC.O=C(C=C([O-])C(F)(F)F)C(F)(F)F.O=C(C=C([O-])C(F)(F)F)C(F)(F)F.O=C(C=C([O-])C(F)(F)F)C(F)(F)F.O=C(C=C([O-])C(F)(F)F)C(F)(F)F.[Gd+3] [MIL 5, [P66614^+] tetrakis(hexafluoroacetylaceto)gadolinate(III)]",7.7,hindered the proliferation of cells,–,–,–,–
"CCCCCCCCCCCCCC[P+](CCCCCC)(CCCCCC)CCCCCC.O=C(C=C([O-])C(F)(F)F)C(F)(F)F.O=C(C=C([O-])C(F)(F)F)C(F)(F)F.O=C(C=C([O-])C(F)(F)F)C(F)(F)F.O=C(C=C([O-])C(F)(F)F)C(F)(F)F.[Nd+3] [MIL 6, [P66614^+] tetrakis(hexafluoroacetylaceto)neodymate(III)]",2.8,little to no influence on the growth of E. coli,no sign of dissolution into the aqueous phase,1.68×10^5 CFUs mL^−1,–,onset of decomposition (thermal stability) [4]: around 225 °C; amplicon after extraction of cell filtrate (cell-free DNA) [5]: No amplicon was detected; movement down the vial [6]: flow easily toward the bottom of the vial
"CCCCCCCCCCCCCC[P+](CCCCCC)(CCCCCC)CCCCCC.O=C(C=C([O-])C(F)(F)F)C(F)(F)F.O=C(C=C([O-])C(F)(F)F)C(F)(F)F.O=C(C=C([O-])C(F)(F)F)C(F)(F)F.[Mn+2] [MIL 2, [P66614^+] tris(hexafluoroacetylaceto)manganate(II)]",–,–,–,–,–,"degradation start, higher than the cobalt-based MIL [4]: approximately 25 °C; μeff ([1]; at higher temperatures): 5.5 μB; μeff ([1]; at lower temperatures): 5.8 μB; visible colonies after back-extraction with LB media and culture on selective agar [7]: did not yield any visible colonies; influence on the growth of E. coli [2]: little to no influence on the growth of E. coli"
C[n+]1ccn(CCCCCCO)c1.O=C(C=C([O-])C(F)(F)F)C(F)(F)F.O=C(C=C([O-])C(F)(F)F)C(F)(F)F.O=C(C=C([O-])C(F)(F)F)C(F)(F)F.[Co+2] [[MC6OHIM^+] [Co(hfacac)3^−]],–,–,–,–,–,transfer with a pipette [8]: could not be transferred with a pipette; solubility in water [9]: soluble in water
"CCCCCCCCCCCCCC[P+](CCCCCC)(CCCCCC)CCCCCC.O=C(C=C([O-])C(F)(F)F)C(F)(F)F.O=C(C=C([O-])C(F)(F)F)C(F)(F)F.O=C(C=C([O-])C(F)(F)F)C(F)(F)F.[Co+2] [MIL 1, trihexyl(tetradecyl)phosphonium tris(hexafluoroacetylaceto)cobaltate(II)]",4.3,–,no sign of dissolution into the aqueous phase,1.68×10^5 CFUs mL^−1,–,sharp increase in the rate of decomposition [4]: around 200 °C; onset of decomposition (thermal stability) [4]: approximately 130 °C; influence on the growth of E. coli [2]: little to no influence on the growth of E. coli
"CCCCCCCCCCCCCC[P+](CCCCCC)(CCCCCC)CCCCCC.CCCCCCCCCCCCCC[P+](CCCCCC)(CCCCCC)CCCCCC.[Cl][Mn-2]([Cl])([Cl])[Cl] [[P66614^+]2[MnCl4^2−], [P66614^+] tetrachloromanganate(II), reference compound]",–,–,–,–,75230,movement down the vial [6]: little to no movement down the vial
"CCCCCCCCCCCCCC[P+](CCCCCC)(CCCCCC)CCCCCC.O=C(C=C([O-])C(F)(F)F)C(F)(F)F.O=C(C=C([O-])C(F)(F)F)C(F)(F)F.O=C(C=C([O-])C(F)(F)F)C(F)(F)F.O=C(C=C([O-])C(F)(F)F)C(F)(F)F.[Dy+3] [MIL 4, [P66614^+] tetrakis(hexafluoroacetylaceto)dysprosate(III)]",9.7,little to no influence on the growth of E. coli,–,1.68×10^5 CFUs mL^−1,–,amplicon after extraction of cell filtrate (cell-free DNA) [5]: No amplicon was detected
"CCCCCCCCCCCCCC[P+](CCCCCC)(CCCCCC)CCCCCC [No. 1, [P66614^+] tetrachloroferrate(III), reference compound]",–,hindered the proliferation of cells,dissolving into the aqueous solution,–,650,–
"CCCCCCCCCCCCCC[P+](CCCCCC)(CCCCCC)CCCCCC.CCCCCCCCCCCCCC[P+](CCCCCC)(CCCCCC)CCCCCC.CCCCCCCCCCCCCC[P+](CCCCCC)(CCCCCC)CCCCCC.[Cl][Gd-3]([Cl])([Cl])([Cl])([Cl])[Cl] [[P66614]3[GdCl6^3−], [P66614] hexachlorogadolinate(III)]",–,–,–,–,18390,–
"CCCCCCCCCCCCCC[P+](CCCCCC)(CCCCCC)CCCCCC.[Cl-] [[P66614^+] [Cl^−], Trihexyl(tetradecyl)phosphonium chloride, reference compound]",–,–,–,–,–,thermal decomposition compared with the MILs ([4]; reference): lowest thermal decomposition
